# Reference: patent publication US8088806B2 (Achillion Pharmaceuticals, Inc., priority 2005, dated 2012)
# Tested on: HCV replicon
# Experiment: Replicon based assay of HCV replication inhibition (NPT ELISA)
# Assay type: cell-based, Hepatitis C virus
# Conditions: Hepatitis C virus, replicon based assay of HCV replication inhibition; Table II; read-out: Activity
# Method in brief: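 NPT (neomycin phosphotransferase) content, proportional to replicon replication, quantified by capture ELISA on day four. Before that, replicon-bearing Huh-7 cells in G418-free screening medium were exposed three days at 37° C to compound, typically six doses from 10 to 0.03 micromolar, with equal DMSO across wells.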
row,Compound,EC50 [nM]
1,"CCCCCCCOc1ccc(Nc2nc(-c3cc4cnccc4o3)cs2)cc1 [compound 362, 4-(furo[3,2-c]pyridin-2-yl)-N-(4-(heptyloxy)phenyl)thiazol-2-amine]",1000 to 10000
2,"c1ccc(Oc2cccc(Nc3nc(-c4cc5cnccc5o4)cs3)c2)cc1 [compound 363, 4-(furo[3,2-c]pyridin-2-yl)-N-(3-phenoxyphenyl)thiazol-2-amine]",> 10000
3,"CCCCCOc1ccc(Nc2nc(-c3ccncc3)cs2)cc1C(F)(F)F [compound 364, N-(4-(pentyloxy)-3-(trifluoromethyl)phenyl)-4-(pyridin-4-yl)thiazol-2-amine]",< 1000
4,"CCCCCCCOc1ccc(Nc2nc(-c3ccncc3)cs2)cc1 [compound 365, N-(4-(heptyloxy)phenyl)-4-(pyridin-4-yl)thiazol-2-amine]",< 1000
5,"c1ccc(Oc2cccc(Nc3nc(-c4ccncc4)cs3)c2)cc1 [compound 366, N-(3-phenoxyphenyl)-4-(pyridin-4-yl)thiazol-2-amine]",< 1000
6,"CCCCCOc1ccc(Nc2nc(C3(C(=O)OCC)CC3)cs2)cc1C(F)(F)F [compound 367, ethyl 1-(2-(4-(pentyloxy)-3-(trifluoromethyl)pheenyl-amino)thiazol-4-yl)cyclopropanecarboxylate]",> 10000
7,"CCCCCOc1ccc(Nc2nc(N3CCCC3C(=O)O)cs2)cc1C(F)(F)F (centres unmarked) [compound 368, 1-(2-(4-(pentyloxy)-3-(trifluoromethyl)phenyl-amino)thiazol-4-yl)pyrrolidine-2-carboxylic acid]",1000 to 10000
8,"CCCCCCCOc1ccc(Nc2nc(-c3ccc(C)nc3)cs2)cc1 [compound 369, N-(4-(heptyloxy)phenyl)-4-(6-methylpyridin-3-yl)thiazol-2-amine]",< 1000
9,"CCCCCCCCOc1ccc(Nc2nc(-c3ccc(C)nc3)cs2)cc1 [compound 370, 4-(6-methylpyridin-3-yl)-N-(4-(octyloxy)phenyl)thiazol-2-amine]",< 1000
10,"CCCCCOc1ccc(Nc2nc(-c3ccccc3O)cs2)cc1C(F)(F)F [compound 371, 2-(2-(4-(pentyloxy)-3-(trifluoromeethyl)phenyl-amino)thiazol-4-yl)phenol]",1000 to 10000
11,"CCCCCCCOc1ccc(Nc2nc(-c3ccccc3O)cs2)cc1 [compound 372, 2-(2-(4-(heptyloxy)phenylamino)thia-zol-4-yl)phenol]",< 1000
12,"CCCCCCCCOc1ccc(Nc2nc(-c3ccccc3O)cs2)cc1 [compound 373, 2-(2-(4-(octyloxy)phenylamino)thia-zol-4-yl)phenol]",< 1000
13,"CCCCCOc1ccc(Nc2nc(-c3ccccc3OC)cs2)cc1C(F)(F)F [compound 374, 4-(2-methoxyphenyl)-N-(4-(pentyloxy)-3-(trifluoromethyl)phenyl)thia-zol-2-amine]",1000 to 10000
14,"CCCCCCCOc1ccc(Nc2nc(-c3ccccc3OC)cs2)cc1 [compound 375, N-(4-(heptyloxy)phenyl)-4-(2-methoxyphenyl)thiazol-2-amine]",< 1000
15,"CCCCCCCCOc1ccc(Nc2nc(-c3ccccc3OC)cs2)cc1 [compound 376, 4-(2-methoxyphenyl)-N-(4-(octyloxy)phenyl)thiazol-2-amine]",< 1000
16,"CCCCCOc1ccc(Nc2nc(-c3ccc(O)nc3)cs2)cc1C(F)(F)F [compound 377, 5-(2-(4-(pentyloxy)-3-(trifluoromethyl)phenyl-amino)thiazol-4-yl)pyridin-2-ol]",< 1000
17,"CCCCCOc1ccc(Nc2nc(-c3ccc(OC)nc3)cs2)cc1C(F)(F)F [compound 378, 4-(6-methoxypyridin-3-yl)-N-(4-(pentyloxy)-3-(trifluoromethyl)phenyl)thia-zol-2-amine]",< 1000
18,"CCCCCN(C)c1ccc(Nc2nc(-c3cccnc3)cs2)cc1C(F)(F)F [compound 379, N^1-methyl-N^1-pentyl-N^4-(4-(pyridin-3-yl)thiazol-2-yl)-2-(trifluoromethyl)benzene-1,4-diamine]",< 1000

row,Compound,EC50 [nM]
1,"CCCCCCCCOc1ccc(Nc2nc(-c3ccc(Br)cc3)cs2)cc1 [compound 382, 4-(4-bromophenyl)-N-(4-(octyloxy)phenyl)thiazol-2-amine]",< 1000
2,"CCCCCCCCOc1ccc(Nc2nc(-c3ccc4[nH]c(=O)oc4c3)cs2)cc1 [compound 383, 6-(2-(4-(octyloxy)phenylamino)thia-zol-4-yl)benzo[d]oxazol-2(3H)-one]",< 1000
3,"CCCCCCCCOc1ccc(Nc2nc(-c3cccc(C(=O)O)c3)cs2)cc1 [compound 384, 3-(2-(4-(octyloxy)phenylamino)thia-zol-4-yl)benzoic acid]",< 1000
4,"CCCCCCCCOc1ccc(Nc2nc(-c3ccccn3)cs2)cc1 [compound 385, N-(4-(octyloxy)phenyl)-4-(pyridin-2-yl)thiazol-2-amine]",< 1000
5,"CCCCCCCCOc1ccc(Nc2nc(-c3c[nH]c4ccccc34)cs2)cc1 [compound 386, 4-(1H-indol-3-yl)-N-(4-(octyloxy)pheenyl)thiazol-2-amine]",< 1000
6,"CCCCCCCCOc1ccc(Nc2nc(-c3ccc(-c4ccccn4)s3)cs2)cc1 [compound 387, N-(4-(octyloxy)phenyl)-4-(5-(pyridin-2-yl)thiophen-2-yl)thiazol-2-amine]",< 1000
7,"CCCCCCCCOc1ccc(Nc2nc(-c3nc4ccccc4s3)cs2)cc1 [compound 388, 4-(benzo[d]thiazol-2-yl)-N-(4-(octyloxy)phenyl)thiazol-2-amine]",< 1000
8,CCCCCCCCOc1ccc(Nc2nc(-c3cc4ccccc4o3)cs2)cc1 [compound 389],< 1000
9,"CCCCCCCCOc1ccc(Nc2nc(-c3sc(-c4cnccn4)nc3C)cs2)cc1 [compound 390, 4-(4-methyl-2-(pyrazin-2-yl)thiazol-5-yl)-N-(4-(octyloxy)phenyl)thiazol-2-amine]",< 1000
10,"CCCCCCCCOc1ccc(Nc2nc(CC)cs2)cc1 [compound 391, 4-ethyl-N-(4-(octyloxy)phenyl)thiazol-2-amine]",< 1000
11,"CCCCCCCOc1ccc(Nc2nc(-c3ccc(O)c(O)c3)cs2)cc1 [compound 392, 4-(2-(4-(heptyloxy)phenylamino)thia-zol-4-yl)benzene-1,2-diol]",< 1000
12,"CCCCCCCOc1ccc(Nc2nc(-c3ccc(Cl)s3)cs2)cc1 [compound 393, 4-(5-chlorothiophen-2-yl)-N-(4-(heptyloxy)phenyl)thiazol-2-amine]",< 1000
13,"CCCCCCCOc1ccc(Nc2nc(-c3ccc(Br)cc3)cs2)cc1 [compound 394, 4-(4-bromophenyl)-N-(4-(heptyloxy)phenyl)thiazol-2-amine]",< 1000
14,"CCCCCCCOc1ccc(Nc2nc(-c3ccc4[nH]c(=O)oc4c3)cs2)cc1 [compound 395, 6-(2-(4-(heptyloxy)phenylamino)thia-zol-4-yl)benzo[d]exazol-2(3H)-one]",< 1000
15,"CCCCCCCOc1ccc(Nc2nc(-c3cccc(C(=O)O)c3)cs2)cc1 [compound 396, 3-(2-(4-(heptyloxy)phenylamino)thia-zol-4-yl)benzoic acid]",< 1000
16,"CCCCCCCOc1ccc(Nc2nc(-c3ccccn3)cs2)cc1 [compound 397, N-(4-(heptyloxy)phenyl)-4-(pyridin-2-yl)thiazol-2-amine]",< 1000
17,"CCCCCCCOc1ccc(Nc2nc(-c3c[nH]c4ccccc34)cs2)cc1 [compound 398, N-(4-(heptyloxy)phenyl)-4-(1H-indol-3-yl)thiazol-2-amine]",< 1000
